# According to patent US7906657B2 (Merck Patent Gesellschaft MIT Beschraenkter Haftung, priority 2006, dated 2011):
# Biological target: T1, Recombinant human HSP90α (Homo sapiens, UniProt P07900)
# T1 construct: host or cells: E. coli
# Assay: radioligand filter binding test with [3H]17AAG (HSP90 inhibition)
# Conditions: competition with [3H]17AAG 0.08 μM; HSP90 1.5 μg/assay; 22° C., 30 min
# Excerpt: Test Method for the Measurement of HSP90 Inhibitors
# The binding of geldanamycin or 17- allylamino-17-demethoxygeldanamycin (17AAG) to HSP90 and competitive inhibition thereof can be utilised in order to determine the inhibitory activity of the compounds according to the invention (Carreras et al. 2003, Chiosis et al. 2002).
# In the specific case, a radioligand filter binding test is used. The radio-ligand used here is tritium-labelled 17-allylaminogeldanamycin, [3H]17AAG. This filter binding test allows a targeted search for inhibitors which interfere with the ATP binding site.
# Recombinant human HSP90α (E. coli expressed, 95% purity);
# [3H]17AAG (17-allylaminogeldanamycin, [allylamino-2,3-^3H. Specific activity: 1.11×10^12 Bq/mmol (Moravek, MT-1717);
# HEPES filter buffer (50 mM HEPES, pH 7.0, 5 mM MgCl2, BSA 0.01%) Multiscreen FB (1 μm) filter plate (Millipore, MAFBNOB 50).
# The 96-well microtitre filter plates are firstly irrigated and coated with 0.1% of polyethylenimine.
# The test is carried out under the following conditions:
# Reaction temperature 22° C.
# Reaction time: 30 min., shaking at 800 rpm
# 50 mM HEPES HCI, pH 7.0, 5 mM MgCl2, 0.01% (w/v) BSA
# At the end of the reaction, the supernatant in the filter plate is removed by suction with the aid of a vacuum manifold (Multiscreen Separation System, Millipore), and the filter is washed twice.
# The filter plates are then measured in a beta counter (Microbeta, Wallac) with scintillator (Microscint 20, Packard).
# “% of control” is determined from the “counts per minutes” values and the IC-50 value of a compound is calculated therefrom.
row,IC50,Structure (SMILES)
1,220 nM,"Cc1ccccc1-n1nccc1-c1cc(C(=O)N(C)Cc2ccc(Cl)cc2Cl)c(O)cc1O [Compound A35, 5-{5-[N-(2,4-Dichlorobenzyl)-N-methylaminocarbonyl]-2,4-dihydroxyphenyl}-1-(2-methylphenyl)-1H-pyrazole]"
2,54 nM,"Cc1ccccc1-n1nccc1-c1cc(C(=O)N(C)Cc2ccccc2F)c(O)cc1O [Compound A6, 5-{5-[N-(2-Fluorobenzyl)-N-methylaminocarbonyl]-2,4-dihydroxyphenyl}-1-(2-methylphenyl)-1H-pyrazole]"
3,54 nM,Cc1ccccc1-n1nccc1-c1cc(C(=O)N(C)Cc2ccc3c(c2)OCO3)c(O)cc1O [Compound A25]
4,33 nM,"Cc1ccccc1-n1nccc1-c1cc(C(=O)N(C)Cc2ccccc2)c(O)cc1O [Compound A17, 5-[5-(N-Benzyl-N-methylaminocarbonyl)-2,4-dihydroxyphenyl]-1-(2-methylphenyl)-1H-pyrazole]"
5,27 nM,"Cc1ccccc1CN(C)C(=O)c1cc(-c2ccnn2-c2ccccc2C)c(O)cc1O [Compound A23, 5-{5-[N-(2-Methylbenzyl)-N-methylaminocarbonyl]-2,4-dihydroxyphenyl}-1-(2-methylphenyl)-1H-pyrazole]"
6,160 nM,"CN(Cc1ccccn1)C(=O)c1cc(-c2ccnn2-c2ccccc2Cl)c(O)cc1O [Compound A60, 5-{5-[N-(Pyridin-2-ylmethyl)-N-methylaminocarbonyl]-2,4-dihydroxyphenyl}-1-(2-chlorophenyl)-1H-pyrazole]"
7,320 nM,"COc1ccc(CN(C)C(=O)c2cc(-c3ccnn3-c3ccccc3C)c(O)cc2O)c(OC)c1 [Compound A31, 5-{5-[N-(2,4-Dimethoxybenzyl)-N-methylaminocarbonyl]-2,4-dihydroxyphenyl}-1-(2-methylphenyl)-1H-pyrazole]"
8,30 nM,"Cc1ccccc1-n1nccc1-c1cc(C(=O)N(C)Cc2cccc(F)c2)c(O)cc1O [Compound A7, 5-{5-[N-(3-Fluorobenzyl)-N-methylaminocarbonyl]-2,4-dihydroxyphenyl}-1-(2-methylphenyl)-1H-pyrazole]"
9,44 nM,"CN(Cc1ccccc1)C(=O)c1cc(-c2ccnn2-c2ccccc2Cl)c(O)cc1O [Compound A2, 5-[5-(N-Benzyl-N-methylaminocarbonyl)-2,4-dihydroxyphenyl]-1-(2-chlorophenyl)-1H-pyrazole]"
10,52 nM,"COc1ccc(Cl)cc1CN(C)C(=O)c1cc(-c2ccnn2-c2ccccc2C)c(O)cc1O [Compound A32, 5-{5-[N-(3-Chloro-6-methoxybenzyl)-N-methylaminocarbonyl]-2,4-dihydroxyphenyl}-1-(2-methylphenyl)-1H-pyrazole]"
11,26 nM,"Cc1ccccc1-n1nccc1-c1cc(C(=O)N(C)Cc2c(F)cccc2Cl)c(O)cc1O [Compound A30, 5-{5-[N-(2-Chloro-6-fluorobenzyl)-N-methylaminocarbonyl]-2,4-dihydroxyphenyl}-1-(2-methylphenyl)-1H-pyrazole]"
12,20 nM,"Cc1ccc(CN(C)C(=O)c2cc(-c3ccnn3-c3ccccc3C)c(O)cc2O)c(C)c1 [Compound A24, 5-{5-[N-(2,4-Dimethylbenzyl)-N-methylaminocarbonyl]-2,4-dihydroxyphenyl}-1-(2-methylphenyl)-1H-pyrazole]"
13,40 nM,"COc1ccccc1CN(C)C(=O)c1cc(-c2ccnn2-c2ccccc2C)c(O)cc1O [Compound A9, 5-{5-[N-(2-Methoxybenzyl)-N-methylaminocarbonyl]-2,4-dihydroxyphenyl}-1-(2-methylphenyl)-1H-pyrazole]"
14,31 nM,"Cc1ccccc1-n1nccc1-c1cc(C(=O)N(C)Cc2cccc(Br)c2)c(O)cc1O [Compound A20, 5-{5-[N-(3-Bromobenzyl)-N-methylaminocarbonyl]-2,4-dihydroxyphenyl}-1-(2-methylphenyl)-1H-pyrazole]"
15,43 nM,"Cc1ccccc1-n1nccc1-c1cc(C(=O)N(C)Cc2ccc(F)cc2)c(O)cc1O [Compound A5, 5-{5-[N-(4-Fluorobenzyl)-N-methylaminocarbonyl]-2,4-dihydroxyphenyl}-1-(2-methylphenyl)-1H-pyrazole]"
